Assays:
[1] = tested on: Neonatal Rat Ventricular Myocytes (NRVMs); format: cell-based
From the text: (§1) A Calcium Transient Image Cytometer (CTIC) instrument and software have been developed at Vala Sciences to analyze calcium transient and other fluorescent read out in stimulated cardiomyocytes which is utilized in the Examples described herein. The instrument consists of a Nikon Eclipse™ microscope with a 20× objective, a Cohu 6612-3000 monochrome ½″ digital/analog progressive scan camera (which operates at 30 or 60 Hz), a Pentium™ 4-based PC, and a 200 gigabyte external “firewire” hard drive.
Platinum electrodes are mounted on a micromanipulator to stimulate cardiomyocytes cultured in a 96-well plate. The plate is placed, without a lid, on the stage of a robotic inverted microscope outfitted for fluorescence microscopy. The mechanical stage of the microscope moves to bring each well into position and the micromanipulator lowers to the pair of electrodes to bring them into contact with the culture medium of the well that is being analyzed. […]
The instrument is incorporated in a 37° C. chamber with CO2 and O2 percentage controllers, allowing the execution of experiment in approximate physiological conditions. The calcium analysis software, developed at Vala Sciences as a plug-in for Vala's CyteSeer High Content Analysis™ software, converts the fluo-4 and Hoechst 33342 fluorescence signals in a binary mask, to distinguish portions of the images corresponding to single cells. […]

[2] = tested on: Neonatal Rat Ventricular Myocytes (NRVMs); assay: Calcium transient (Tdecay) in single-pulse stimulated NRVMs, CTIC; format: cell-based; conditions: for Tdecay Mean / Tdecay Diff. (%) control vs compound / Tdecay Difference (ms) control vs compound: single pulse; for Tdecay Mean: average signal of three wells
From the text: as §1
Platinum electrodes are mounted on a micromanipulator to stimulate cardiomyocytes cultured in a 96-well plate. The plate is placed, without a lid, on the stage of a robotic inverted microscope outfitted for fluorescence microscopy. The mechanical stage of the microscope moves to bring each well into position and the micromanipulator lowers to the pair of electrodes to bring them into contact with the culture medium of the well that is being analyzed. The voltage used to stimulate the cells is on the order of 20 to 30 volts, utilizing square wave pulses of 5 to 20 msec. A “polarity reverser” is included in the circuit to maintain electrode performance and effective stimulation of cardiac myocytes. FIG. 3 describes the prototype setting. After positioned on the well, the electrodes move to the “down” position, the instrument autofocuses on cells nuclei (blue channel), stimulates the cells (single stimulus or at 1 to 3 Hz for 3 to 10 seconds) and acquires the fluo-4 channel (green channel). Subsequently, the electrodes move to the “up” position and the instrument moves to another well, repeating the entire process. The time required to sample each well will range from 20 to 30 seconds, depending on the number of frames that are collected and the rate of stimulation.
The instrument is incorporated in a 37° C. chamber with CO2 and O2 percentage controllers, allowing the execution of experiment in approximate physiological conditions. The calcium analysis software, developed at Vala Sciences as a plug-in for Vala's CyteSeer High Content Analysis™ software, converts the fluo-4 and Hoechst 33342 fluorescence signals in a binary mask, to distinguish portions of the images corresponding to single cells. Then, comparing the images acquired during the stimulation, the software reports the calcium variation for the well or for every single cell and the average value for the well. Traces can be filtered to remove low responders or kinetics with specific characteristics.
A number of kinetic parameters can be automatically derived either for the nuclear, cytoplasm or the whole cell compartments: The Full Width at Half Maximum (FWHM), which is the time required for progression from the 50% point on the upstroke to 50% point on the downstroke, TRise, which is the time from 50% point to 100% on the upstroke, and the TDecay, which is the time period from 100% point to 50% point on the decay phase. Other values can be measured, including the time from 75% to 25% in the downstroke (T75-25) and the value at a particular time. Values are measured for single cells in the well and as average of the well.
The CTIC and calcium recording have been validated also for toxicity-related analysis. In one set of experiments, NRVMs are treated with either sparfloxacin or cisapride. The first one is a fluoroquinolone antibiotic no longer available in the U.S., known to induce QT interval prolongation at high dosage. The second one is a serotonin 5-HT4 receptor agonist, used to cure people with gastro esophageal reflux disease. […] This is a clear hallmark of compounds that predispose to arrhythmia and torsades de pointes.
Tdecay is indicated for the average signal of three control wells and three compound treated wells. The mean, standard deviation (SD) and percent error is calculated for each group. The difference between the control and the compound groups is also indicated.
FIGS. 5A and 5B show calcium transient in drug treated NRVMs. […]

Calcium flux response to continuous stimulation [1] | Effect on Tdecay ([2]; 100 μM during the stimulation) | Tdecay Mean ([2]; 100 μM in recording buffer) | Tdecay Diff. (%) control vs compound ([2]; 100 μM) | Tdecay Difference (ms) control vs compound ([2]; 100 μM) | Early after depolarization (EAD) ([2]; 1 μM) | Effect on Tdecay ([2]; 1 μM) | Tdecay Mean ([2]; 1 μM in recording buffer) | Tdecay Diff. (%) control vs compound ([2]; 1 μM) | Tdecay Difference (ms) control vs compound ([2]; 1 μM) | Substance
irregular calcium flux | clearly doubles the Tdecay | 1969 ms | +106% | +1012 ms |  |  |  |  |  | Sparfloxacin
 |  |  |  |  | causes early after depolarization (EAD) | induces an increase in Tdecay | 2145 ms | +129% | +1210 ms | Cisapride

Reference: patent US10001470B2, “Method, system and composition for optically inducing cardiomyocyte contraction” (Sanford-Burnham Medical Research Institute, priority 2009, dated 2018)
